Data as given in PubChem BioAssay AID1963973 (Molecular Pharmacology Branch, DTP, NCI, 2024).

Tested on: 883617-216-R-J1-PDC tumor spheroids, viability
Assay: Anticancer human tumor 883617-216-R-J1-PDC patient-derived bladder carcinoma cell line growth inhibition [PI3K]
Conditions: spheroids with HUVEC and MSC; for IC50: curve of first compound; for viability, T/C: stronger effect = lower value
Source text: Combinatorial screen of targeted agents with the PI3K inhibitors inavolisib, alpelisib, duvelisib, and copanlisib in multi-cell type tumor spheroids
A high-throughput screen of multi-cell type tumor spheroids was designed to identify active combinations of targeted small molecules and PI3K pathway inhibitors. Complex spheroids include a stromal component modeled by human endothelial cells (HUVEC) and fibroblasts modeled by human mesenchymal stem cells (MSCs). The concentration ranges selected for each drug and investigational agent were based upon clinically achievable concentrations if the clinical Cmax of the agent was known.
Compounds. The drugs and investigational agents: inavolisib (NSC800729), alpelisib (NSC765974), duvelisib (NSC772469), copanlisib (NSC816437), ipatasertib (NSC767898), afuresertib (NSC778305), talazoparib (NSC767125), sapanisertib (NSC764658), selumetinib (NSC741078), tovorafenib (DAY101, NSC766906), vemurafenib (NSC761431), ravoxertinib (NSC781343), sotorasib (NSC818433), MRTX1133 (NSC 836407), abemaciclib (NSC 768073), palbociclib (NSC758247), venetoclax (NSC 766270), SY5609 (NSC837396), enzalutamide (NSC755605), and darolutamide (NSC825331), were obtained from the National Cancer Institute (NCI) Developmental Therapeutics Program Chemical Repository. The FDA-approved anticancer drug set is available from the NCI Developmental Therapeutics Program. […] The stock solutions were prepared in dimethyl sulfoxide (DMSO, Sigma-Aldrich, St. Louis, MO, cat. D2650) at 800-fold the tested concentration and stored at -70 degrees C prior to their use. All drugs and investigational agents were tested over a range starting from a high concentration at or near the clinical Cmax and decreasing in half-log increments. If the clinical Cmax for an agent had not been determined, the highest concentration tested was 10 microM.
Cell Culture. All cells were maintained in an incubator at 37 degrees C and 5% CO2 with 95% humidity. The PDC lines were cultured according to standard operating procedures established by the NCI PDMR (https://pdmr.cancer.gov/sops/default.htm). All PDCs were thawed and cultured in Matrigel-coated flasks prepared with a working solution of 1X Ham's F-12 nutrient mix, without supplementation (Invitrogen, Waltham, MA, cat. 11765054), 100 U/mL penicillin-streptomycin (Invitrogen, cat. 15140122), and 2.5% Matrigel (Corning Inc., Corning, NY, cat. 354248) for the first three passages. The 354836-022-R-J1-PDC, 475296-252-R-J1-PDC, and 997726-040-R-J2-PDC lines were cultured in 6A media, which includes advanced DMEM/F-12 (Thermo Fisher Scientific, cat. 12634028), 10 mM HEPES (Thermo Fisher Scientific, cat. 15630080), 1X GlutaMAX supplement (Thermo Fisher Scientific, cat. 35050061), 0.1 mg/mL primocin (InvivoGen, San Diego, CA, cat. ant-pm-2), 10% defined fetal bovine serum, heat inactivated (HyClone Laboratories Inc., Logan, UT, cat. SH30070.03HI), 50% L-WRN conditioned media (ATCC, cat. CRL-3276), 1.25 mM N-Acetyl-L-cysteine (Sigma-Aldrich, cat. A9165), 10 mM nicotinamide (Sigma-Aldrich, cat. N0636), 1X B-27 supplement (Thermo Fisher Scientific, cat. 17504044), 1X N-2 supplement (Thermo Fisher Scientific, cat. 17502048), and 10 microM Y-27632 dihydrochloride (Tocris Bioscience, Bristol, United Kingdom, cat. 1254). The 624824-186-R-J2-PDC line was cultured in 6C/Colon 1B media, which includes all 6A media components plus 50 ng/mL human EGF recombinant protein (Thermo Fisher Scientific, cat. PHG0311). […]

[1] = second compound 0.0316 µM, first compound 0.0316 µM
[2] = second compound 0.0316 µM, first compound 0.1 µM
[3] = second compound 0.0316 µM, first compound 0.316 µM
[4] = second compound 0.0316 µM, first compound 1 µM
[5] = second compound 0.0316 µM, first compound 3.16 µM
[6] = second compound 0.0316 µM, first compound 10 µM
[7] = second compound 0.1 µM, first compound 0.0316 µM
[8] = second compound 0.1 µM, first compound 0.1 µM
[9] = second compound 0.1 µM, first compound 0.316 µM
[10] = second compound 0.1 µM, first compound 1 µM
[11] = second compound 0.1 µM, first compound 3.16 µM
[12] = second compound 0.1 µM, first compound 10 µM
[13] = second compound 0.316 µM, first compound 0.0316 µM
[14] = second compound 0.316 µM, first compound 0.1 µM
[15] = second compound 0.316 µM, first compound 0.316 µM
[16] = second compound 0.316 µM, first compound 1 µM
[17] = second compound 0.316 µM, first compound 3.16 µM
[18] = second compound 0.316 µM, first compound 10 µM
[19] = second compound 1 µM, first compound 0.0316 µM
[20] = second compound 1 µM, first compound 0.1 µM
[21] = second compound 1 µM, first compound 0.316 µM
[22] = second compound 1 µM, first compound 1 µM
[23] = second compound 1 µM, first compound 3.16 µM
[24] = second compound 1 µM, first compound 10 µM
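Further: spheroids exposed to agents for 7 days before the viability read.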

`Cn1ncc(Cl)c1-c1cc(C(=O)NC(CN)Cc2cccc(F)c2)sc1Cl` (centres undefined) + COc1c(OCCCN2CCOCC2)ccc2c3n(c(=NC(=O)c4cnc(N)nc4)nc12)CCN3 was tested, and the IC50 (second compound 0.00316 µM) was 0.473 µM, the IC50 (second compound 0.01 µM) was 0.241 µM and the IC50 (second compound 0.0316 µM) was < 0.0316 µM. For the same compound, the IC50 (second compound 0.1 µM) was < 0.0316 µM, the IC50 (second compound 0.316 µM) was < 0.0316 µM and the IC50 (second compound 1 µM) was < 0.0316 µM. The viability, T/C (second compound 0.00316 µM, first compound 0.0316 µM) was 83.1%, the viability, T/C (second compound 0.00316 µM, first compound 0.1 µM) was 85.4% and the viability, T/C (second compound 0.00316 µM, first compound 0.316 µM) was 59%. For the same compound, the viability, T/C (second compound 0.00316 µM, first compound 1 µM) was 29.6%, the viability, T/C (second compound 0.00316 µM, first compound 3.16 µM) was 13.9% and the viability, T/C (second compound 0.00316 µM, first compound 10 µM) was 5.61%. The viability, T/C (second compound 0.01 µM, first compound 0.0316 µM) was 66%, the viability, T/C (second compound 0.01 µM, first compound 0.1 µM) was 61.6% and the viability, T/C (second compound 0.01 µM, first compound 0.316 µM) was 45.4%. The viability, T/C (second compound 0.01 µM, first compound 1 µM) was 28.1%, the viability, T/C (second compound 0.01 µM, first compound 3.16 µM) was 10% and the viability, T/C (second compound 0.01 µM, first compound 10 µM) was 4.83%. For the same compound, the viability, T/C [1] was 33.8%, the viability, T/C [2] was 34.7% and the viability, T/C [3] was 33.2%. It also gave a viability, T/C [4] of 15.1%, a viability, T/C [5] of 8.09% and a viability, T/C [6] of 3.75%. It also gave a viability, T/C [7] of 17.8%, a viability, T/C [8] of 12.7% and a viability, T/C [9] of 10.8%. For the same compound, the viability, T/C [10] was 8.94%, the viability, T/C [11] was 5.15% and the viability, T/C [12] was 2.08%. For the same compound, the viability, T/C [13] was 6.38%, the viability, T/C [14] was 4.23% and the viability, T/C [15] was 5.38%. The viability, T/C [16] was 5.78%, the viability, T/C [17] was 2.33% and the viability, T/C [18] was 1.23%. The viability, T/C [19] was 3.15%, the viability, T/C [20] was 3.32% and the viability, T/C [21] was 2.66%. For the same compound, the viability, T/C [22] was 2.93%, the viability, T/C [23] was 2.39% and the viability, T/C [24] was 0.58%.
For `CC1(C)CCC(CN2CCN(c3ccc(C(=O)NS(=O)(=O)c4ccc(NCC5CCOCC5)c([N+](=O)[O-])c4)c(Oc4cnc5[nH]ccc5c4)c3)CC2)=C(c2ccc(Cl)cc2)C1` + Cc1nc(NC(=O)N2CCCC2C(N)=O)sc1-c1ccnc(C(C)(C)C(F)(F)F)c1, the IC50 (second compound 0.0316 µM) was 5.05 µM, the IC50 (second compound 0.1 µM) was 4.46 µM and the IC50 (second compound 0.316 µM) was < 0.0316 µM. For the same compound, the IC50 (second compound 1 µM) was < 0.0316 µM, the IC50 (second compound 3.16 µM) was < 0.0316 µM and the IC50 (second compound 10 µM) was < 0.0316 µM. For the same compound, the viability, T/C [1] was 85.3%, the viability, T/C [2] was 84% and the viability, T/C [3] was 87.7%. For the same compound, the viability, T/C [4] was 81.2%, the viability, T/C [5] was 81.8% and the viability, T/C [6] was 3.63%. It also gave a viability, T/C [7] of 66.6%, a viability, T/C [8] of 66.1% and a viability, T/C [9] of 79.5%. It also gave a viability, T/C [10] of 67.3%, a viability, T/C [11] of 71.3% and a viability, T/C [12] of 3.02%. For the same compound, the viability, T/C [13] was 47.4%, the viability, T/C [14] was 45% and the viability, T/C [15] was 51.2%. The viability, T/C [16] was 52.6%, the viability, T/C [17] was 44.5% and the viability, T/C [18] was 4.5%. For the same compound, the viability, T/C [19] was 41.3%, the viability, T/C [20] was 28.9% and the viability, T/C [21] was 29.4%. For the same compound, the viability, T/C [22] was 33.2%, the viability, T/C [23] was 30.7% and the viability, T/C [24] was 3.44%. It also gave a viability, T/C (second compound 3.16 µM, first compound 0.0316 µM) of 14.8%, a viability, T/C (second compound 3.16 µM, first compound 0.1 µM) of 14.4% and a viability, T/C (second compound 3.16 µM, first compound 0.316 µM) of 17.1%. For the same compound, the viability, T/C (second compound 3.16 µM, first compound 1 µM) was 14.3%, the viability, T/C (second compound 3.16 µM, first compound 3.16 µM) was 14.7% and the viability, T/C (second compound 3.16 µM, first compound 10 µM) was 2.57%. It also gave a viability, T/C (second compound 10 µM, first compound 0.0316 µM) of 7.93%, a viability, T/C (second compound 10 µM, first compound 0.1 µM) of 12.9% and a viability, T/C (second compound 10 µM, first compound 0.316 µM) of 7.45%. For the same compound, the viability, T/C (second compound 10 µM, first compound 1 µM) was 8.13%, the viability, T/C (second compound 10 µM, first compound 3.16 µM) was 7.77% and the viability, T/C (second compound 10 µM, first compound 10 µM) was 1.74%.
